Molecules are shown by their SMILES. Where a name gives a salt, the structure may show the parent alone.

Data on 22 molecules can be found in patent publication US10040791B2, “Isoxazole derivative as mutant isocitrate dehydrogenase 1 inhibitor” (Daiichi Sankyo Company, Limited, priority 2014, dated 2018).

One experiment addresses IDH1R132C (Homo sapiens (Human), UniProt O75874, R132C). Kind of experiment: Inhibitory activity against IDH1R132C enzyme (NADPH detection, WST-8). The experiment is classed as biochemical. Conditions: 10 nM, residual NADPH detected with WST-8, read-out: Test Example 1 IDH1 R132C IC50.
In experiment [1] the test system is HT-1080 cells expressing IDH1R132C. Nature of the experiment: 2-HG production inhibitory activity using HT1080 cell. Particulars: Homo sapiens, HT-1080; 2-HG production, HT1080 cells; read-out: Test Example 3 IC50. The experiment is classed as cell-based, human. The method, then: Then, 100 μL of growth medium B was added to each well, further 25 μL of a solution of each compound diluted to a predetermined concentration with growth medium B was added to each well, and the cells were incubated at 37° C. for 2 days under 5% CO2. […] Then, 150 μL of ultrapure water was further added to each well, and the mixture was stirred by pipetting and stored at −20° C.
The preserved solutions were thawed at room temperature.

The subject of experiment [2] is HT1080 xenografted mice (IDH1R132C). Nature of the experiment: 2-HG production inhibitory activity using HT1080 xenografted mice. The experiment is classed as in vivo, mouse. Conditions: 2-HG production, HT1080 xenografted mice; for response vs control in vivo at 75 mg/kg: Mus musculus, HT-1080, po, 6 h, read-out: Test Example 5 Ratio (%). The method, then:
HT1080 xenografted mice having successfully engrafted tumors were given by oral gavage each compound at 75 mg/kg a total of three times twice a day. The compound was suspended in a vehicle solution at 7.5 mg/mL using a homogenizer. Then, the suspension was stored at −20° C., thawed immediately before the administration, and given to mice. A negative control group for the test was given a vehicle by oral gavage. The body weights of the mice were measured using an automatic balance for small animals. The dosing solution was administered at a dose of 10 mL/kg body weight.
6 hours after the final administration, each mouse was euthanized with carbon dioxide. A portion of a tumor was collected, and its weight was measured using an electronic balance. Then, the tumor was frozen on dry ice. To the frozen tumor, methanol was added in an amount of 14 times the tumor weight. The resulting tumor was homogenized with Beads shocker (Yasui Kikai Corp.) and then incubated for 15 minutes in a freezer at −20° C. After centrifugation at 15000 rpm at 4° C. for 15 minutes using a high-speed refrigerated microcentrifuge, 250 μL of methanol and 400 μL of ultrapure water were added to 150 μL of the obtained supernatant. The prepared samples were subjected to 2-HG measurement.

IDH1R132C, sequence (O75874 whole entry R132C): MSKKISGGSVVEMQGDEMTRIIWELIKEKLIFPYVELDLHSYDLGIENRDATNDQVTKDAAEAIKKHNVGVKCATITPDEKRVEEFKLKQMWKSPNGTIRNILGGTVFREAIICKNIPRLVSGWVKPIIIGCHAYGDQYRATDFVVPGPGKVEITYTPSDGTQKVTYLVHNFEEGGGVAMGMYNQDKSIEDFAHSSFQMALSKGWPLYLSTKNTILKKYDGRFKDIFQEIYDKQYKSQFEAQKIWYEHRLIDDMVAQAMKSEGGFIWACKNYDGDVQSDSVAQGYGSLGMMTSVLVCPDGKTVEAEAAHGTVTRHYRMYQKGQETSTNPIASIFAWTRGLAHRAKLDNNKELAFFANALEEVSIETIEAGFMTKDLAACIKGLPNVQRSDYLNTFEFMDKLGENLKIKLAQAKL

As for `C=CC(=O)N1CCN(c2onc(-c3c(Cl)cc(Cl)cc3Cl)c2C(=O)n2ccc3c(/C=C/C(=O)O)cccc32)C(C)C1` (stereo in doubt) [Example 146, (2E)-3-[1-({5-[(2R)-4-Acryloyl-2-methylpiperazin-1-yl]-3-(2,4,6-trichlorophenyl)-1,2-oxazol-4-yl}carbonyl)-1H-indol-4-yl]prop-2-enoic acid], the IC50 was determined as 144 nM at IDH1R132C and 104 nM in experiment [1]. Further, in experiment [2], the response vs control in vivo at 75 mg/kg came to 38%.
On the same counts, the results for `CC1(c2onc(-c3c(Cl)cc(Cl)cc3Cl)c2C(=O)n2ccc3c(/C=C/C(=O)O)cccc32)COC1` [Example 1, (2E)-3-(1-{[5-(3-Methyloxetan-3-yl)-3-(2,4,6-trichlorophenyl)-1,2-oxazol-4-yl]carbonyl}-1H-indol-4-yl)prop-2-enoic acid] are 56 nM, 33 nM and 21%.
On the same counts, the results for `Cc1cn(C(=O)c2c(-c3c(Cl)cc(Cl)cc3Cl)noc2C2(C)COC2)c2cccc(/C=C/C(=O)O)c12` [Example 2, (2E)-3-(3-Methyl-1-{[5-(3-methyloxetan-3-yl)-3-(2,4,6-trichlorophenyl)-1,2-oxazol-4-yl]carbonyl}-1H-indol-4-yl)prop-2-enoic acid] are 47 nM, 18 nM and 18%.
On the same counts, the results for `COC1(c2onc(-c3c(Cl)cc(Cl)cc3Cl)c2C(=O)n2ccc3c(/C=C/C(=O)O)cccc32)COC1` [Example 3, (2E)-3-(1-{[5-(3-Methoxyoxetan-3-yl)-3-(2,4,6-trichlorophenyl)-1,2-oxazol-4-yl]carbonyl}-1H-indol-4-yl)prop-2-enoic acid] are 64 nM, 60 nM and 42%.
As to `Cc1cn(C(=O)c2c(-c3c(Cl)cc(Cl)cc3Cl)noc2C(F)(F)F)c2cccc(/C=C/C(=O)O)c12` [Example 61, (2E)-3-(3-Methyl-1-{[3-(2,4,6-trichlorophenyl)-5-(trifluoromethyl)-1,2-oxazol-4-yl]carbonyl}-1H-indol-4-yl)prop-2-enoic acid], in experiment [1], the IC50 came to 337 nM. For the same molecule, the response vs control in vivo at 75 mg/kg in experiment [2] worked out at 63%.
With `Cc1cn(C(=O)c2c(-c3ccc(Cl)cc3Cl)noc2C2(C)COC2)c2cccc(/C=C/C(=O)O)c12` [Example 78, (2E)-3-(1-{[3-(2,4-Dichlorophenyl)-5-(3-methyloxetan-3-yl)-1,2-oxazol-4-yl]carbonyl}-3-methyl-1H-indol-4-yl)prop-2-enoic acid], the IC50 in experiment [1] is 281 nM. Besides, in experiment [2], the response vs control in vivo at 75 mg/kg was 50%.
As for `Cc1cn(C(=O)c2c(-c3c(Cl)cc(Cl)cc3Cl)noc2C2(C#N)CCC2)c2cccc(/C=C/C(=O)O)c12` [Example 93, (2E)-3-(1-{[5-(1-Cyanocyclobutyl)-3-(2,4,6-trichlorophenyl)-1,2-oxazol-4-yl]carbonyl}-3-methyl-1H-indol-4-yl)prop-2-enoic acid], in experiment [1], the IC50 is 42 nM. The response vs control in vivo at 75 mg/kg in experiment [2] amounted to 119%.
As for `CCN(CC)c1onc(-c2c(Cl)cccc2Cl)c1C(=O)n1ccc2c(/C=C/C(=O)O)cccc21` [Example 134, (2E)-3-(1-{[3-(2,6-Dichlorophenyl)-5-(diethylamino)-1,2-oxazol-4-yl]carbonyl}-1H-indol-4-yl)prop-2-enoic acid], the IC50 at IDH1R132C worked out at 143 nM; in experiment [1], 347 nM.
The matching figures for `O=C(O)/C=C/c1cccc2c1ccn2C(=O)c1c(-c2c(Cl)cccc2Cl)noc1N1CCCC1` [Example 135, (2E)-3-(1-{[3-(2,6-Dichlorophenyl)-5-(pyrrolidin-1-yl)-1,2-oxazol-4-yl]carbonyl}-1H-indol-4-yl)prop-2-enoic acid]: 122 nM and 376 nM.
On the same counts, the results for `O=C(O)/C=C/c1cccc2c1ccn2C(=O)c1c(-c2c(Cl)cccc2Cl)noc1N1CCOCC1` [Example 136, (2E)-3-(1-{[3-(2,6-Dichlorophenyl)-5-(morpholin-4-yl)-1,2-oxazol-4-yl]carbonyl}-1H-indol-4-yl)prop-2-enoic acid] are 140 nM and 335 nM.
On the same counts, the results for `C[C@@H]1CCC[C@H](C)N1c1onc(-c2c(Cl)cccc2Cl)c1C(=O)n1ccc2c(/C=C/C(=O)O)cccc21` [Example 137, (2E)-3-(1-{[3-(2,6-Dichlorophenyl)-5-(cis-2,6-dimethylpiperidin-1-yl)-1,2-oxazol-4-yl]carbonyl}-1H-indol-4-yl)prop-2-enoic acid] are 189 nM and 299 nM.
`CN(C)c1onc(-c2c(Cl)cc(Cl)cc2Cl)c1C(=O)n1ccc2c(/C=C/C(=O)O)cccc21` [Example 138]: the IC50 is 88 nM at IDH1R132C and 288 nM in experiment [1].
The matching figures for `C=CC(=O)N1CCN(c2onc(-c3c(Cl)cccc3Cl)c2C(=O)n2ccc3c(/C=C/C(=O)O)cccc32)C(C)(C)C1` [Example 153, (2E)-3-(1-{[5-(4-Acryloyl-2,2-dimethylpiperazin-1-yl)-3-(2,6-dichlorophenyl)-1,2-oxazol-4-yl]carbonyl}-1H-indol-4-yl)prop-2-enoic acid]: 130 nM and 166 nM.
The matching figures for `C=CC(=O)N1CC2(CC2)N(c2onc(-c3c(F)cccc3Cl)c2C(=O)n2cc(C)c3c(/C=C/C(=O)O)cccc32)C[C@H]1C` [Example 162, (2E)-3-[1-({5-[(6R)7-Acryloyl-6-methyl-4,7-diazaspiro[2.5]oct-4-yl]-3-(2-chloro-6-fluorophenyl)-1,2-oxazol-4-yl}carbonyl)-3-methyl-1H-indol-4-yl]prop-2-enoic acid]: 95 nM and 253 nM.
`Cn1cc(C(=O)c2c(-c3c(Cl)cc(Cl)cc3Cl)noc2C(C)(C)C)c2cccc(/C=C/C(=O)O)c21` [Example 164]: the IC50 in experiment [1] was found to be 330 nM. In addition, the response vs control in vivo at 75 mg/kg in experiment [2] is 89%.
As to `Cn1cc(C(=O)c2c(-c3c(Cl)cc(Cl)cc3Cl)noc2C2(C)CC2)c2cccc(/C=C/C(=O)O)c21` [Example 165], the half-maximal inhibitory concentration (IC50) at IDH1R132C came to 81 nM; in experiment [1], 186 nM.
For `Cc1cn(C(=O)c2c(-c3c(Cl)cc(Cl)cc3Cl)noc2C(C)(C)F)c2cccc(/C=C/C(=O)O)c12` [Example 168, (2E)-3-(1-{[5-(2-Fluoropropan-2-yl)-3-(2,4,6-trichlorophenyl)-1,2-oxazol-4-yl]carbonyl}-3-methyl-1H-indol-4-yl)prop-2-enoic acid tert-butylamine salt], the response vs control in vivo at 75 mg/kg in experiment [2] is 13%.
On to `Cc1cn(C(=O)c2c(-c3c(F)cc(Cl)cc3Cl)noc2C(C)(C)F)c2cccc(/C=C/C(=O)O)c12` [Example 169, (2E)-3-(1-{[3-(2,4-Dichloro-6-fluorophenyl)-5-(2-fluoropropan-2-yl)-1,2-oxazol-4-yl]carbonyl}-3-methyl-1H-indol-4-yl)prop-2-enoic acid tert-butylamine salt], for which the “Test Example 5 Ratio (%)” value in experiment [2] was found to be 17%.
Consider `Cc1cn(C(=O)c2c(-c3c(F)cc(Cl)cc3F)noc2C(C)(C)F)c2cccc(/C=C/C(=O)O)c12` [Example 170, (2E)-3-(1-{[3-(4-Chloro-2,6-difluorophenyl)-5-(2-fluoropropan-2-yl)-1,2-oxazol-4-yl]carbonyl}-3-methyl-1H-indol-4-yl)prop-2-enoic acid tert-butylamine salt], for which, in experiment [2], the “Test Example 5 Ratio (%)” value was 35%.
On the same count and under the same terms, next, `Cc1cc(Cl)cc(C)c1-c1noc(C(C)(C)F)c1C(=O)n1cc(C)c2c(/C=C/C(=O)O)cccc21` [Example 171, (2E)-3-(1-{[3-(4-Chloro-2,6-dimethylphenyl)-5-(2-fluoropropan-2-yl)-1,2-oxazol-4-yl]carbonyl}-3-methyl-1H-indol-4-yl)prop-2-enoic acid tert-butylamine salt]: 22%; `Cc1cc(Cl)cc(Cl)c1-c1noc(C(C)(C)F)c1C(=O)n1cc(C)c2c(/C=C/C(=O)O)cccc21` [Example 172, (2E)-3-(1-{[3-(2,4-Dichloro-6-methylphenyl)-5-(2-fluoropropan-2-yl)-1,2-oxazol-4-yl]carbonyl}-3-methyl-1H-indol-4-yl)prop-2-enoic acid tert-butylamine salt]: 8%.
Still for that read-out and setting: next, `Cc1cn(C(=O)c2c(-c3ccc(Cl)cc3Cl)noc2C(C)(C)F)c2cccc(/C=C/C(=O)O)c12` [Example 173, (2E)-3-(1-{[3-(2,4-Dichlorophenyl)-5-(2-fluoropropan-2-yl)-1,2-oxazol-4-yl]carbonyl}-3-methyl-1H-indol-4-yl)prop-2-enoic acid tert-butylamine salt]: 2%.
